According to article PMC9065678, “BI 1015550 is a PDE4B Inhibitor and a Clinical Drug Candidate for the Oral Treatment of Idiopathic Pulmonary Fibrosis” (Frontiers in Pharmacology, 2022):

Tests used:
[1] = test system: Col1A1 mRNA expression; assay: TGF-β-induced Col1A1 mRNA expression in IPF lung fibroblasts (Taqman); assay type: cell-based, human; settings: IPF-LF, TGF-β 4 ng/mL, 48 h; read-out: IC50 TGF-β-induced Col1 mRNA expression
Procedure: Fibroblasts from donors with IPF (IPF-LF) (Asterand, Detroit, MI, United States) were grown in fibroblast basal medium (CC-3131, Lonza Walkersville, Inc., Walkersville, MD, United States) supplemented with FGM-2 SingleQuot Kit Supplements and Growth Factors (CC-4126, Lonza). Cells were grown in a humidified incubator at 37°C and 5% CO2. All assays were performed at passage 7 or 8. For assay set-up, cells were seeded in fibroblast growth medium plus supplements in assay-relevant densities. For TGF-β-stimulated assays, cells were seeded at 4,500 cells per well in 96-well plates. Proliferation assays were performed in 96-well plates at an initial seeding cell density on day 0 of 2,000 cells per well. After 24-h, the cell culture medium was changed to starvation medium (fibroblast basal medium without supplements). […]
For determination of Col1A1, Col3A1, and FN mRNA expression, IPF-LF cells were stimulated with TGF-β (4 ng/mL) for 48 h. […] Quantitative real-time polymerase chain reactions were set up using the TaqMan™ Fast Advanced Master Mix (Applied Biosystems, Carlsbad, CA, United States) and species-specific gene expression assays: Col1A1 #Hs00164004_m1 FAM, Col3A1 #Hs0094309_m1 FAM, FN #Hs01549976_m1 FAM, 18S #4310893E. […] Fold-change of gene expression was calculated by the Viia7 software (regulation based upon housekeeper).

[2] = target: T1, PDE4D (Homo sapiens, UniProt Q08499); assay: Recombinant PDE activity, scintillation proximity assay: PDE4D; assay type: biochemical; settings: human recombinant active site fragment, substrate [3H]cAMP, means from n independent experiments; read-out: IC50 PDE4D2
T1 construct: PDE4D NG_027957, AA 79–438; made in house; host or cells: SF9 insect cells (baculovirus, Bac-To-Bac, pFastbac)
T1 sequence (Q08499 381-740): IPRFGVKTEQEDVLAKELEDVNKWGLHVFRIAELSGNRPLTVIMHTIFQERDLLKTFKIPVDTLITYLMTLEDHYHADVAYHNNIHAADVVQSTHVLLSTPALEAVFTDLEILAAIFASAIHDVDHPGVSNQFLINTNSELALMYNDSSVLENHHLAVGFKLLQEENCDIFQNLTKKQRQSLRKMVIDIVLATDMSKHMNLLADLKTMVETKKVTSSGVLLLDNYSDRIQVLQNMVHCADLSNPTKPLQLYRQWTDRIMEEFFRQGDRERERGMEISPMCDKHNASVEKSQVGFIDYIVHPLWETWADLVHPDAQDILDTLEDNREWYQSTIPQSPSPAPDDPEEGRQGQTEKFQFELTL
Procedure: For the preparation of human recombinant PDEs of interest, the Bac-To-Bac baculoviral expression system from Invitrogen (Carlsbad, CA, United States) was used according to the instruction manual. […] The plasmids were transformed into DH10Bac bacteria, SF9 insect cells were transfected with the bacmid DNA, and the resulting baculoviruses were stored and used for further rounds of infections. For protein production, SF9 cells were infected until a cytopathic effect was visible (after about 72 h), the SF9 cells were harvested and broken up by 3 freeze/thaw cycles, and by shearing 10 times through a 0.1 mm cannula using a syringe. […] The Phosphodiesterase Scintillation Proximity Assays (TRKQ7090 for [^3H]cAMP, GE Healthcare Europe GmbH, Chalfont St Giles, United Kingdom, and TRKQ7100 for [^3H]cGMP, Perkin Elmer, Waltham, MA, United States) were performed essentially according to the instruction manual. […] Assay solutions containing recombinant baculoviral-expressed PDE (to give an activity of 5.000–20.000 cpm corresponding to 5–20% of total activity added), 50 mmol/L Tris/HCl pH 7.5, 8.3 mmol/L MgCl2, 1.7 mmol/L EGTA, and 10 µL radiolabeled substrate (0.05 µCi in H2O) were incubated for 1 h at 30°C (final volume 100 μL).

[3] = target: T2, PDE7A (Homo sapiens, UniProt Q13946); assay: Recombinant PDE activity, scintillation proximity assay: PDE7A; assay type: biochemical; settings: calculated IC50
T2 construct: made in house; host or cells: SF9 insect cells (baculovirus, Bac-To-Bac, pFastbac)
T2 sequence (Q13946 whole entry): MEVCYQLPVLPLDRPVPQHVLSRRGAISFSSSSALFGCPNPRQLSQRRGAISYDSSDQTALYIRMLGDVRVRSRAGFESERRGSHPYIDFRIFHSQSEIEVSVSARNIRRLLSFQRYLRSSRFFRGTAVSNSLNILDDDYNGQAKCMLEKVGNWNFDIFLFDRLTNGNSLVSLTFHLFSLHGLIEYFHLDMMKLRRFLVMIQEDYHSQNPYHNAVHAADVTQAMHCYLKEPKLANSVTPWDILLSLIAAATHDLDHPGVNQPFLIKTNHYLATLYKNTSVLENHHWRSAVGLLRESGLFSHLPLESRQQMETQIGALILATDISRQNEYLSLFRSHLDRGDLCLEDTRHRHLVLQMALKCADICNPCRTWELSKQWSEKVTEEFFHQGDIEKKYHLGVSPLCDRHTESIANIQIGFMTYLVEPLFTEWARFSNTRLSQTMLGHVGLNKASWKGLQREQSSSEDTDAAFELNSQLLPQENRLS
Source text: For the preparation of human recombinant PDEs of interest, the Bac-To-Bac baculoviral expression system from Invitrogen (Carlsbad, CA, United States) was used according to the instruction manual. In short, the full-length open reading frames of PDE1C (National Center for Biotechnology Information Gene-Ref-Seq identifier NG_051183), PDE3A (NG_030033), PDE4A (NG_029594, AA 156–886), PDE4C (NG_029629), PDE7A (NG_029614), and PDE9A (NG_047067) were cloned into the plasmid vector pFastbac. For PDE4B and PDE4D, active site fragments were used (PDE4B NG_029038: AA 152–484, PDE4D NG_027957, AA 79–438). The plasmids were transformed into DH10Bac bacteria, SF9 insect cells were transfected with the bacmid DNA, and the resulting baculoviruses were stored and used for further rounds of infections. […] The protein content was measured and an equal volume of 87% (v/v) glycerol was added prior to freezing at −20°C. […] The reaction was stopped by addition of 50 µL of yttrium silicate scintillation proximity assay beads (17.8 mg/mL, 18 mM zinc sulfate in H2O) and the amount of produced [^3H]AMP/[^3H]GMP associated was determined using a Wallac Microbeta scintillation counter. […]

[4] = test system: α-SMA protein expression; assay: α-SMA protein expression of TGF-β-stimulated IPF lung fibroblasts (Western blot replacement assay); assay type: cell-based, human
Procedure: Fibroblasts from donors with IPF (IPF-LF) (Asterand, Detroit, MI, United States) were grown in fibroblast basal medium (CC-3131, Lonza Walkersville, Inc., Walkersville, MD, United States) supplemented with FGM-2 SingleQuot Kit Supplements and Growth Factors (CC-4126, Lonza). Cells were grown in a humidified incubator at 37°C and 5% CO2. All assays were performed at passage 7 or 8. For assay set-up, cells were seeded in fibroblast growth medium plus supplements in assay-relevant densities. For TGF-β-stimulated assays, cells were seeded at 4,500 cells per well in 96-well plates. Proliferation assays were performed in 96-well plates at an initial seeding cell density on day 0 of 2,000 cells per well. After 24-h, the cell culture medium was changed to starvation medium (fibroblast basal medium without supplements). After a 24-h starvation period, cells were pre-incubated for 30 min with different concentrations of BI 1015550 plus/minus different concentrations of nintedanib and/or 1 nmol/L PGE2 and stimulated with the assay-relevant stimulus for the indicated time in the presence of the compound.
For determination of α-SMA protein expression, IPF-LF cells were stimulated with TGF-β (4 ng/mL) for 48 h. Lysates were assayed in a Western blot replacement assay (MSD). In short, lysates were pipetted onto high binding plates (MSD) and were sequentially incubated with a mouse anti-human α-SMA antibody (Sigma Aldrich) and an anti-mouse sulfo-tag antibody (MSD). For analysis, an MSD sector imager was used.

[O-][S+]1CCc2nc(N3CCC(c4ncc(Cl)cn4)CC3)nc(NC3(CO)CCC3)c21 (stereo not drawn) [BI 1015550]
IC50 [1]: 269 nM | IC50 [2]: 91 nM | IC50 [3]: 14000 nM | IC50 ([4]; TGF-β (4 ng/mL, 48 h)-stimulated IPF-LF): 210 nM | Additional inhibitory efficacy on α-SMA protein expression in combination ([4]; combination with nintedanib 10–100 nmol/L): did not result in additional inhibitory efficacy | Additional inhibitory effects in combination, myofibroblast transformation assay ([4]; combination with pirfenidone (100 µmol/L), data not shown): did not yield any additional inhibitory effects
